# Measurements: patent US9408852B2, “Method of lowering serum uric acid levels with (S)-tofisopam” (PHARMOS CORPORATION, priority 2011, dated 2016)
# Assays:
# Assay type in all cases: in vivo, human
# [1] = tested on: serum uric acid; test: Serum uric acid in postmenopausal women, single- and multiple-dose study (Comparative Example 4); parameters: Serum uric acid, baseline adjusted data, Median / Serum uric acid, unadjusted data, Mean / Serum uric acid, unadjusted data, Median / Serum uric acid, baseline adjusted data, Mean: unit not given here
# Procedure: In a double-blind, randomized, placebo-controlled, single- and multiple-dose study in postmenopausal women with enantiomerically-pure (R)-tofisopam, patients were treated with placebo, 100 mg once a day (qd) of (R)-tofisopam, or 200 mg qd of (R)-tofisopam for the first day of the study, and then with placebo, 100 mg twice a day (bid) of (R)-tofisopam, or 200 mg bid of (R)-tofisopam for Days 2 to 7 of the study.
# [2] = tested on: serum uric acid; test: Serum uric acid in female outpatients with irritable bowel syndrome, 3 months (Comparative Example 6); parameters: Serum uric acid Actual Value, Mean / Serum uric acid Change from Baseline, Mean / Serum uric acid Actual Value, Median / Serum uric acid Change from Baseline, Median: unit not given here; details: for Serum uric acid Actual Value, Mean / Serum uric acid Actual Value, Median / Serum uric acid Change from Baseline, Mean / Serum uric acid Change from Baseline, Median: women with irritable bowel syndrome
# Procedure: The study lasted 3 months, and patients were treated with 100 mg, 200 mg or 300 mg of enantiomerically-pure (R)-tofisopam twice a day.
# [3] = tested on: serum uric acid; test: Serum uric acid in male and female outpatients with irritable bowel syndrome, 3 months (Comparative Example 5); parameters: Serum uric acid Actual Value, Mean / Serum uric acid Change from Baseline, Mean / Serum uric acid Actual Value, Median / Serum uric acid Change from Baseline, Median: unit not given here; details: for Serum uric acid Actual Value, Mean / Serum uric acid Actual Value, Median / Serum uric acid Change from Baseline, Mean / Serum uric acid Change from Baseline, Median: men and women with irritable bowel syndrome
# Procedure: The study lasted 3 months, and patients were treated with 200 mg of (R)-tofisopam twice a day (bid).
# [4] = 100 mg bid (qd on D 1, bid on D 2 to D 7), time 6 h
# [5] = 100 mg bid (qd on D 1, bid on D 2 to D 7), time 24 h
# [6] = 100 mg bid (qd on D 1, bid on D 2 to D 7), time 72 h
# [7] = 100 mg bid (qd on D 1, bid on D 2 to D 7), time 143 h
# [8] = 100 mg bid (qd on D 1, bid on D 2 to D 7), time 168 h
# [9] = 200 mg bid (qd on D 1, bid on D 2 to D 7), time 6 h
# [10] = 200 mg bid (qd on D 1, bid on D 2 to D 7), time 24 h
# [11] = 200 mg bid (qd on D 1, bid on D 2 to D 7), time 72 h
# [12] = 200 mg bid (qd on D 1, bid on D 2 to D 7), time 143 h
# [13] = 200 mg bid (qd on D 1, bid on D 2 to D 7), time 168 h
compound,measurement,setting,value
CC[C@H]1C(C)=NN=C(c2ccc(OC)c(OC)c2)c2cc(OC)c(OC)cc21 [(R)-tofisopam],"Serum uric acid, baseline adjusted data, Mean",[1]; [4],0
same,"Serum uric acid, baseline adjusted data, Median",[1]; [4],0
same,"Serum uric acid, unadjusted data, Mean",[1]; [4],0.19
same,"Serum uric acid, unadjusted data, Median",[1]; [4],0.19
same,"Serum uric acid, baseline adjusted data, Mean",[1]; [5],0.01
same,"Serum uric acid, baseline adjusted data, Median",[1]; [5],0.01
same,"Serum uric acid, unadjusted data, Mean",[1]; [5],0.20
same,"Serum uric acid, unadjusted data, Median",[1]; [5],0.21
same,"Serum uric acid, baseline adjusted data, Mean",[1]; [6],0.01
same,"Serum uric acid, baseline adjusted data, Median",[1]; [6],0.01
same,"Serum uric acid, unadjusted data, Mean",[1]; [6],0.20
same,"Serum uric acid, unadjusted data, Median",[1]; [6],0.21
same,"Serum uric acid, baseline adjusted data, Mean",[1]; [7],0.01
same,"Serum uric acid, baseline adjusted data, Median",[1]; [7],0.01
same,"Serum uric acid, unadjusted data, Mean",[1]; [7],0.20
same,"Serum uric acid, unadjusted data, Median",[1]; [7],0.20
same,"Serum uric acid, baseline adjusted data, Mean",[1]; [8],0.03
same,"Serum uric acid, baseline adjusted data, Median",[1]; [8],0.03
same,"Serum uric acid, unadjusted data, Mean",[1]; [8],0.23
same,"Serum uric acid, unadjusted data, Median",[1]; [8],0.23
same,Effect on serum uric acid levels,"[1]; 100 mg or 200 mg qd first day, bid Days 2 to 7",does not decrease
same,"Serum uric acid, baseline adjusted data, Mean",[1]; [9],−0.01
same,"Serum uric acid, baseline adjusted data, Median",[1]; [9],−0.01
same,"Serum uric acid, unadjusted data, Mean",[1]; [9],0.21
same,"Serum uric acid, unadjusted data, Median",[1]; [9],0.21
same,"Serum uric acid, baseline adjusted data, Mean",[1]; [10],−0.01
same,"Serum uric acid, baseline adjusted data, Median",[1]; [10],−0.01
same,"Serum uric acid, unadjusted data, Mean",[1]; [10],0.21
same,"Serum uric acid, unadjusted data, Median",[1]; [10],0.21
same,"Serum uric acid, baseline adjusted data, Mean",[1]; [11],0
same,"Serum uric acid, baseline adjusted data, Median",[1]; [11],0
same,"Serum uric acid, unadjusted data, Mean",[1]; [11],0.22
same,"Serum uric acid, unadjusted data, Median",[1]; [11],0.22
same,"Serum uric acid, baseline adjusted data, Mean",[1]; [12],−0.01
same,"Serum uric acid, baseline adjusted data, Median",[1]; [12],0
same,"Serum uric acid, unadjusted data, Mean",[1]; [12],0.21
same,"Serum uric acid, unadjusted data, Median",[1]; [12],0.21
same,"Serum uric acid, baseline adjusted data, Mean",[1]; [13],0.01
same,"Serum uric acid, baseline adjusted data, Median",[1]; [13],0.01
same,"Serum uric acid, unadjusted data, Mean",[1]; [13],0.22
same,"Serum uric acid, unadjusted data, Median",[1]; [13],0.23
same,Serum uric acid levels over time,[1]; up to 168 hours (7 days) after initiation of treatment,remained constant
same,"Serum uric acid Actual Value, Mean","[2]; 100 mg BID, 3 months Endpoint",4.94
same,"Serum uric acid Actual Value, Median","[2]; 100 mg BID, 3 months Endpoint",4.90
same,"Serum uric acid Change from Baseline, Mean","[2]; 100 mg BID, 3 months Endpoint",0.22
same,"Serum uric acid Change from Baseline, Median","[2]; 100 mg BID, 3 months Endpoint",0.20
same,"Serum uric acid Actual Value, Mean","[2]; 100 mg BID, Week 12",4.91
same,"Serum uric acid Actual Value, Median","[2]; 100 mg BID, Week 12",4.80
same,"Serum uric acid Change from Baseline, Mean","[2]; 100 mg BID, Week 12",0.23
same,"Serum uric acid Change from Baseline, Median","[2]; 100 mg BID, Week 12",0.20
same,Effect on serum uric acid levels,"[2]; 100 mg, 200 mg or 300 mg twice a day, 3 months, female outpatients with irritable bowel syndrome",does not decrease
same,"Serum uric acid Actual Value, Mean","[2]; 200 mg BID, 3 months Endpoint",4.82
same,"Serum uric acid Actual Value, Median","[2]; 200 mg BID, 3 months Endpoint",4.60
same,"Serum uric acid Change from Baseline, Mean","[2]; 200 mg BID, 3 months Endpoint",−0.19
same,"Serum uric acid Change from Baseline, Median","[2]; 200 mg BID, 3 months Endpoint",−0.20
same,"Serum uric acid Actual Value, Mean","[2]; 200 mg BID, Week 12",4.82
same,"Serum uric acid Actual Value, Median","[2]; 200 mg BID, Week 12",4.60
same,"Serum uric acid Change from Baseline, Mean","[2]; 200 mg BID, Week 12",−0.20
same,"Serum uric acid Change from Baseline, Median","[2]; 200 mg BID, Week 12",−0.20
same,"Serum uric acid Actual Value, Mean","[2]; 300 mg BID, 3 months Endpoint",5.04
same,"Serum uric acid Actual Value, Median","[2]; 300 mg BID, 3 months Endpoint",5.00
same,"Serum uric acid Change from Baseline, Mean","[2]; 300 mg BID, 3 months Endpoint",−0.05
same,"Serum uric acid Change from Baseline, Median","[2]; 300 mg BID, 3 months Endpoint",0.00
same,"Serum uric acid Actual Value, Mean","[2]; 300 mg BID, Week 12",5.02
same,"Serum uric acid Actual Value, Median","[2]; 300 mg BID, Week 12",4.95
same,"Serum uric acid Change from Baseline, Mean","[2]; 300 mg BID, Week 12",−0.06
same,"Serum uric acid Change from Baseline, Median","[2]; 300 mg BID, Week 12",−0.05
same,Serum uric acid levels over time,"[2]; up to 3 months after initiation of treatment, 100, 200 or 300 mg twice a day",remained constant
same,"Serum uric acid Actual Value, Mean","[3]; 200 mg bid, 3 months Endpoint",5.20
same,"Serum uric acid Actual Value, Median","[3]; 200 mg bid, 3 months Endpoint",5.10
same,"Serum uric acid Change from Baseline, Mean","[3]; 200 mg bid, 3 months Endpoint",−0.06
same,"Serum uric acid Change from Baseline, Median","[3]; 200 mg bid, 3 months Endpoint",0.00
same,"Serum uric acid Actual Value, Mean","[3]; 200 mg bid, Day 7",5.18
same,"Serum uric acid Actual Value, Median","[3]; 200 mg bid, Day 7",5.00
same,"Serum uric acid Change from Baseline, Mean","[3]; 200 mg bid, Day 7",−0.05
same,"Serum uric acid Change from Baseline, Median","[3]; 200 mg bid, Day 7",0.00
same,"Serum uric acid Actual Value, Mean","[3]; 200 mg bid, Day 14",5.22
same,"Serum uric acid Actual Value, Median","[3]; 200 mg bid, Day 14",5.05
same,"Serum uric acid Change from Baseline, Mean","[3]; 200 mg bid, Day 14",−0.01
same,"Serum uric acid Change from Baseline, Median","[3]; 200 mg bid, Day 14",−0.10
same,"Serum uric acid Actual Value, Mean","[3]; 200 mg bid, Day 28",5.18
same,"Serum uric acid Actual Value, Median","[3]; 200 mg bid, Day 28",5.00
same,"Serum uric acid Change from Baseline, Mean","[3]; 200 mg bid, Day 28",−0.07
same,"Serum uric acid Change from Baseline, Median","[3]; 200 mg bid, Day 28",−0.10
same,"Serum uric acid Actual Value, Mean","[3]; 200 mg bid, Day 42",5.46
same,"Serum uric acid Actual Value, Median","[3]; 200 mg bid, Day 42",5.70
same,"Serum uric acid Change from Baseline, Mean","[3]; 200 mg bid, Day 42",0.12
same,"Serum uric acid Change from Baseline, Median","[3]; 200 mg bid, Day 42",0.20
same,"Serum uric acid Actual Value, Mean","[3]; 200 mg bid, Day 56",5.40
same,"Serum uric acid Actual Value, Median","[3]; 200 mg bid, Day 56",5.20
same,"Serum uric acid Change from Baseline, Mean","[3]; 200 mg bid, Day 56",0.02
same,"Serum uric acid Change from Baseline, Median","[3]; 200 mg bid, Day 56",0.00
same,"Serum uric acid Actual Value, Mean","[3]; 200 mg bid, Day 84",5.37
same,"Serum uric acid Actual Value, Median","[3]; 200 mg bid, Day 84",5.30
same,"Serum uric acid Change from Baseline, Mean","[3]; 200 mg bid, Day 84",0.03
same,"Serum uric acid Change from Baseline, Median","[3]; 200 mg bid, Day 84",0.10
same,Effect on serum uric acid levels,"[3]; 200 mg twice a day (bid), 3 months, male and female outpatients with irritable bowel syndrome",does not decrease
same,Serum uric acid levels over time,"[3]; up to 3 months after initiation of treatment, 200 mg bid",remained constant
